Consider one compound from patent US20220213198A1, “METHOD OF TREATMENT” (The Council of the Queensland Institute of Medical Research, priority 2019, published 2022).

This experiment deals with NK cells. Briefly: Ex vivo NK cell effector function in tumor-bearing lungs (IFNγ, CD107a). Further details: species or system mouse. How it is done:
FIG. 3. Upregulation of surface MR1 on tumor cells suppresses NK cell function through MAIT cells. (A) Schematic to analyze NK effector function in the lungs of C57BL/6 WT or MR1^−/− mice injected with 5-OP-RU-pulsed B16F10 or LWT1 cells. On day 5 relative to tumor inoculation, lungs were harvested from the indicated groups of mice (n=5-6/group) and stimulated with PMA/ionomycin plus protein transport inhibitors and NK cell effector function was assessed by flow cytometry. (B) Representative contour plots of IFNγ staining in NK cells (NKp46^+ NK1.1^+ TCRβ^− CD45.2^+) and (C) the proportion and MFI of IFNγ^+ NK cells amongst total NK cells in B16F10-bearing lungs. (D) Representative contour plots of CD107a staining in NK cells and (E) the proportion and MFI of CD107a^+ NK cells amongst total NK cells in B16F10 tumor-bearing lungs. (F) Representative contour plots of IFNγ staining in NK cells and (G) the proportion and MFI of IFNγ^+ NK cells amongst total NK cells in LWT1 tumor-bearing lungs. (H) Representative contour plots of CD107a staining in NK cells and (I) the proportion and MFI of CD107a^+ NK cells amongst total NK cells in the LWT1-bearing lungs. Data presented as mean±SEM. Significant differences between groups as indicated by crossbars were determined using a one-way ANOVA followed by Tukey's post-hoc test, *p<0.05, **p<0.01, ***p<0.001, ****p<0.0001.
FIG. 4. Upregulation of MR1 on B16F10 activates MAIT cells to suppress NK cell effector function through IL-17. (A) Schematic to analyze MAIT or NK cell effector function in the lungs of C57BL/6 WT or MR1^−/− mice injected with 5-OP-RU- or DMSO-stimulated B16F10 melanoma cells. On day 5 relative to tumor inoculation, lungs were harvested and stimulated with PMA/ionomycin plus protein transport inhibitors for 4 hours and MAIT or NK cell function was assessed by flow cytometry. (B) The proportion of CD69^+ MAIT cells amongst total MAIT cells (B220^− F4/80^− MR1-5-OP-RU tetramer^+ TCRβ^+) in naïve or tumor-bearing lungs. Data presented as mean±SEM. (C) Representative dot plot of IL-17 expression by MAIT cells. The (D) proportion of IL-17^+ MAIT cells amongst total MAIT cells in the lungs of naïve and tumor-bearing mice as indicated. Data presented as mean±SEM. (E) Representative dot plot of TNF expression by MAIT cells. The (F) proportion of TNF MAIT cells and (G) IFNγ^+ MAIT cells amongst total MAIT cells in the lungs of naïve and tumor-bearing mice as indicated. (H, I) On day 5 relative to tumor inoculation, lungs were harvested (n=6/group) and stimulated with PMA/ionomycin plus protein transport inhibitors for 3 hours and NK cell function was assessed by flow cytometry. The proportion of IFNγ^+ NK cells and CD107a^+ NK cells amongst total NK cells (NKp46^+ NK1.1^+ TCRβ^− CD45.2^+) in tumor-bearing C57BL/6 WT or IL-17^−/− mice. Data presented as mean±SEM. (J) Groups of WT or MR1^−/− mice (n=4-6/group) were injected i.v. with 1×10^5 B16F10 melanoma cells. In some groups, sorted MAIT cells (2×10^5 cells/mouse) from C57BL/6 WT or IL-17A^−/− mice were i.v. injected into the indicated groups of mice one day before tumor inoculation. On day 14 relative to tumor cell inoculation, lungs were harvested and the metastatic burden was quantified by counting colonies on the lung surface. Data presented as mean±SEM. Data pooled from two independent experiments for (B, D, F, G). Experiments were performed once for (H-K). Significant differences between groups as indicated by crossbars were determined using a one-way ANOVA followed by Tukey's post-hoc test (B, D, F, J), or a Mann-Whitney test (H, I), *p<0.05, **p<0.01, ***p<0.001, ****p<0.0001.
Single cell suspensions from lungs of the indicated groups were incubated in a 96-well U-bottom plate in complete RPMI 1640 media. Cells were incubated in the presence or absence of cell stimulation cocktail (PMA/ionomycin) plus protein transport inhibitors (Golgistop and Golgiplug) (1000 times dilution) for 3-4 hours as indicated. […]

Take `CC(=O)C=Nc1c(NC[C@H](O)[C@H](O)[C@H](O)CO)[nH]c(=O)[nH]c1=O` [5-OP-RU]: the “proportions of IFNγ producing and CD107a expressing NK cells” value (IL-17A-/- mice, treated vs DMSO-treated B16F10, day 5) is reported as “this reduction was not observed”. In addition, the “NK cell effector function” value (MR1-/- mice that received treated LWT1) was “did not manifest” and the “NK cell effector function” value (WT mice that received treated LWT1) is “suppression of NK cell effector function was observed”. For the same compound, under “lungs of MR1-/- mice, treated vs DMSO-treated B16F10, day 5”, the NK cell function entry is “not suppressed”. The “proportions of NK cells producing IFNγ and MFI” value (lungs of WT mice bearing treated vs DMSO-treated B16F10, day 5) is reported as “significantly decreased”. Moreover, under “lungs of WT mice, treated vs DMSO-treated B16F10, day 5”, the “proportions of NK cells expressing CD107a and expression levels” value is “significantly decreased”.
